Values after ≈ are worked out from the molar mass of the structure shown. Active and inactive are the calls of the source. The rule behind the calls is not given here.
Tests used:
[1] = Solubility of the compound in water at pH 7.4; type: physicochemical
[2] = system: K562; assay: cells; settings: Homo sapiens, K562, 72 h
Description: Antiproliferative activity against human K562 cells under normoxic condition after 72 hrs by using CyQUANT GR dye

[3] = target: T1, Proto-oncogene tyrosine-protein kinase Src (Homo sapiens, UniProt P12931)
Description: (§1) Inhibition of human recombinant c-Src by filter-binding assay

[4] = system: K562; assay: cells; settings: Homo sapiens, K562, 72 h; remark: listed apart in the source
Description: Antiproliferative activity against human K562 cells under hypoxic condition after 72 hrs by using CyQUANT GR dye

[5] = system: MEG-01; assay: cells; settings: Homo sapiens, MEG-01, 72 h
Description: Antiproliferative activity against human MEG01 cells under hypoxic condition after 72 hrs by using CyQUANT GR dye

[6] = Apparent permeability of the compound at pH 7.4 by PAMPA assay; type: ADME
[7] = target: Tyrosine-protein kinase ABL1 (Homo sapiens, UniProt P00519)
Chain of Tyrosine-protein kinase ABL1 (P00519 whole entry): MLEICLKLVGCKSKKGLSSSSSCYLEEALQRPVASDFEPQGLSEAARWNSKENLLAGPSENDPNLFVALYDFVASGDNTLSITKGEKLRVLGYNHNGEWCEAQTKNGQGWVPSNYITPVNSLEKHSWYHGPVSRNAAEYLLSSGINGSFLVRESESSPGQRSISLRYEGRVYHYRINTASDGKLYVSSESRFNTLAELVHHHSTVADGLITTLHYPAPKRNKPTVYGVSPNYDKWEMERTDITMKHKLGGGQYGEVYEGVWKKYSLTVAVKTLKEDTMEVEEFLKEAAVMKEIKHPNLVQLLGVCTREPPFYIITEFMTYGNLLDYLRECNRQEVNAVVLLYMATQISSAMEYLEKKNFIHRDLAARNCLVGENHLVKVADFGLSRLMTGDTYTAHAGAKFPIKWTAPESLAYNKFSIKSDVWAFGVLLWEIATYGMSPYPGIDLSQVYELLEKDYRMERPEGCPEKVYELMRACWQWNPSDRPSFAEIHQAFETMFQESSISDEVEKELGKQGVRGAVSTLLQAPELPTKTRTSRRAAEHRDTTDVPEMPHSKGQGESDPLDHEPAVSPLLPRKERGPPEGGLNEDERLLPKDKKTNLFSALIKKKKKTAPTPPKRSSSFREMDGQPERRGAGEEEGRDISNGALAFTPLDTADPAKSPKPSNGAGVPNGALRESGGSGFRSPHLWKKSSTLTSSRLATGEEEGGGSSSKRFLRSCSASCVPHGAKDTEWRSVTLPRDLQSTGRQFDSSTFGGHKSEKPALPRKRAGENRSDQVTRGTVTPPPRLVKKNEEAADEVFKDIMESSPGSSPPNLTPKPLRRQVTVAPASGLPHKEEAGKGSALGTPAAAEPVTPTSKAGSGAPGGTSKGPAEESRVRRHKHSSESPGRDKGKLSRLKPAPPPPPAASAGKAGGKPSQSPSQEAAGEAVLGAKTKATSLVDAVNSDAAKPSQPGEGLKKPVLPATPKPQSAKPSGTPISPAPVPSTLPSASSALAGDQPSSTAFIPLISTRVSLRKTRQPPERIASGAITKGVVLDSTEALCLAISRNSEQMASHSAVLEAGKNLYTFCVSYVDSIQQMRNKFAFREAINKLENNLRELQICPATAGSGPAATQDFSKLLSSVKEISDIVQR
Description: Inhibition of human recombinant c-Abl by filter-binding assay

[8] = system: MEG-01; assay: cells; settings: Homo sapiens, MEG-01, 72 h; remark: listed apart in the source
Description: Antiproliferative activity against human MEG01 cells under normoxic condition after 72 hrs by using CyQUANT GR dye

[9] = Metabolic stability in human liver microsomes assessed as parent compound remaining after 60 mins by LC-MS analysis; type: ADME, Microsome; settings: read-out: Stability
[10] = target: T2, Signal transducer and activator of transcription 5A (Homo sapiens) (UniProt P42229); assay: Inhibition of STAT5 phosphorylation in human K562 cells under hypoxic condition after 3 hrs by Western blotting; type: cell-based
T2 sequence (whole entry): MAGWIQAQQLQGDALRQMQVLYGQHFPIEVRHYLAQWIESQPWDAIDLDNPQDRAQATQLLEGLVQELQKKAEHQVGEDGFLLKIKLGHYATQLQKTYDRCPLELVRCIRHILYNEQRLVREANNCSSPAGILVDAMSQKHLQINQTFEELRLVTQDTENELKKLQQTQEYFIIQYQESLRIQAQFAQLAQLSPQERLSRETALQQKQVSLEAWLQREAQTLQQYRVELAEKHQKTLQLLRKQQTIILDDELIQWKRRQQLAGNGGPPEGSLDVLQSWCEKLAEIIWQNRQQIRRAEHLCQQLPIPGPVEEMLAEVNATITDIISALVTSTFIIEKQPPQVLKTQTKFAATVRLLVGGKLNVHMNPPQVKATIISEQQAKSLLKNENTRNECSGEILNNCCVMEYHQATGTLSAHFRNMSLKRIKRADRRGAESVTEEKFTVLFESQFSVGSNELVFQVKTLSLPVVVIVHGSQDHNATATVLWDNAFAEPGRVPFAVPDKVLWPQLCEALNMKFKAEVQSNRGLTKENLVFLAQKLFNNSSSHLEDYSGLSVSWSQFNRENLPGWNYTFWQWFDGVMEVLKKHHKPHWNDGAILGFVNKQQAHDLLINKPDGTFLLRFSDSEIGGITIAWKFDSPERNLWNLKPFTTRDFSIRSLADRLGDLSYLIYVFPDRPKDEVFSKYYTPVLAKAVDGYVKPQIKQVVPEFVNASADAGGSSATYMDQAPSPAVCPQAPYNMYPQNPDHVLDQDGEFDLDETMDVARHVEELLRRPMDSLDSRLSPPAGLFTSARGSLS

[11] = system: K562; assay: Inhibition of carbonic anhydrase 9 mRNA expression in human K562 cells under hypoxic condition at 10 uM after 72 hrs by quantitative RT-PCR analysis; type: functional, cell-based
[12] = target: T2, Signal transducer and activator of transcription 5A (Homo sapiens); assay: Inhibition of STAT5 phosphorylation in human MEG-01 cells under hypoxic condition after 3 hrs by Western blotting; type: cell-based
[13] = target: T2, Signal transducer and activator of transcription 5A (Homo sapiens); assay: Inhibition of STAT5 phosphorylation in human KU812 cells under hypoxic condition after 3 hrs by Western blotting; type: cell-based
[14] = system: K562; assay: Induction of HIF1alpha expression in human K562 cells under hypoxic condition assessed as HIF1alpha accumulation after 3 hrs by Western blotting; type: functional, cell-based
[15] = target: T2, Signal transducer and activator of transcription 5A (Homo sapiens); assay: Inhibition of STAT5 phosphorylation in human KU812 cells under normoxic condition after 3 hrs by Western blotting; type: cell-based
[16] = target: T2, Signal transducer and activator of transcription 5A (Homo sapiens); assay: Inhibition of STAT5 phosphorylation in human MEG-01 cells under normoxic condition after 3 hrs by Western blotting; type: cell-based
[17] = cells; settings: Homo sapiens, KU812, 72 h
Description: Antiproliferative activity against human KU812 cells under hypoxic condition after 72 hrs by using CyQUANT GR dye

[18] = system: K562; assay: Inhibition of carbonic anhydrase 9 mRNA expression in human K562 cells under normoxic condition at 10 uM after 72 hrs by quantitative RT-PCR analysis; type: functional, cell-based
[19] = system: K562; assay: Induction of apoptosis in human K562 cells assessed as caspase-3 mediated cleavage of PARP level at 10 uM after 72 hrs under hypoxic condition by immunoblot analysis; type: functional, cell-based
[20] = target: T2, Signal transducer and activator of transcription 5A (Homo sapiens); assay: Inhibition of STAT5 phosphorylation in human K562 cells under normoxic condition after 3 hrs by Western blotting; type: cell-based
[21] = cells; settings: Homo sapiens, KU812, 72 h; remark: listed apart in the source
Description: Antiproliferative activity against human KU812 cells under normoxic condition after 72 hrs by using CyQUANT GR dye

[22] = system: K562; assay: Induction of apoptosis in human K562 cells assessed as caspase-3 activity at 10 uM under hypoxic condition after 72 hrs by fluorescence microplate reader; type: functional, cell-based
[23] = system: K562; assay: Induction of apoptosis in human K562 cells assessed as caspase-3 activity at 10 uM under normoxic condition after 72 hrs by fluorescence microplate reader; type: functional, cell-based
[24] = Cytotoxicity against mouse BA/F3 cells expressing p210Bcr-Abl E255K mutant; type: functional; settings: BaF3, read-out: LD50 (the source's name)
[25] = Cytotoxicity against mouse BA/F3 cells expressing p210Bcr-Abl T315I mutant; type: functional; settings: BaF3, read-out: LD50 (the source's name)
[26] = Cytotoxicity against mouse BA/F3 cells expressing wild type p210Bcr-Abl; type: functional; settings: BaF3, read-out: LD50 (the source's name)
[27] = Cytotoxicity against mouse BA/F3 cells expressing p210Bcr-Abl Y253F mutant; type: functional; settings: BaF3, read-out: LD50 (the source's name)
[28] = target: T1, Proto-oncogene tyrosine-protein kinase Src; remark: listed apart in the source
Description: as §1

T1 sequence (P12931 2-536 limits assumed): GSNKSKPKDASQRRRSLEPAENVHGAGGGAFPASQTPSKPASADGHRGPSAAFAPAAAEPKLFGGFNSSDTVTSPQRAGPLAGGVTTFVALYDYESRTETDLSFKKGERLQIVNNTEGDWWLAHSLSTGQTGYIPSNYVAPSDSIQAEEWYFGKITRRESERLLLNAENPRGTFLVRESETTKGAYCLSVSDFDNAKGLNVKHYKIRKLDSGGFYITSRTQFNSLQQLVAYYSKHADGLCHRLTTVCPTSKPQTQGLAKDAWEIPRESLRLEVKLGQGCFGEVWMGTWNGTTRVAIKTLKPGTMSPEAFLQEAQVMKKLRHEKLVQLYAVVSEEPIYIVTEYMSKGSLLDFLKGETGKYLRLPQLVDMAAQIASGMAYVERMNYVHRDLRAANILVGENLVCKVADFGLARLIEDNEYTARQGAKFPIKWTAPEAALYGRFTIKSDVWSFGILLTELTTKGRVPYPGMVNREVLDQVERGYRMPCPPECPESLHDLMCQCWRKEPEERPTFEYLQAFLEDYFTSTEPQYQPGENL

OCCNc1nc(NCCc2ccccc2)c2cnn(/C=C\c3ccccc3)c2n1
solubility [1]: 0.4 µg/mL (≈ 0.999 µM)
IC50 [2]: 2.3 µM
Ki [3]: 2.4 µM
IC50 [4]: 8.1 µM
IC50 [5]: 34 µM
Papp [6]: 2.6 ×10⁻⁶ cm/s
Ki [7]: 0.22 µM
IC50 [8]: 12.9 µM
remaining at 1 h [9]: 84%

Clc1cccc(Nc2nc(N3CCOCC3)nc3c2cnn3CC(Cl)c2ccccc2)c1 (stereo not drawn)
solubility [1]: 0.13 µg/mL (≈ 0.277 µM)
inhibition [10]: Active
inhibition [11]: Active
inhibition [12]: Active
inhibition [13]: Active
Activity [14]: inactive
inhibition [15]: Active
inhibition [16]: Active
IC50 [2]: 12.2 µM
IC50 [17]: 16.1 µM
Ki [3]: 7.6 µM
IC50 [4]: 4.6 µM
inhibition [18]: Active
Activity [19]: Active
IC50 [5]: 15 µM
Papp [6]: 14.8 ×10⁻⁶ cm/s
inhibition [20]: Active
Ki [7]: 0.39 µM
IC50 [8]: 7.7 µM
IC50 [21]: 2.2 µM
remaining at 1 h [9]: 90%
Activity [22]: Active
Activity [23]: Active

Fc1ccc(C(Cl)Cn2ncc3c(NCc4ccncc4)ncnc32)cc1 (stereo not drawn)
IC50 [2]: 36.5 µM
IC50 [8]: 37.4 µM
IC50 [21]: 56.4 µM

Clc1ccc(C(Cl)Cn2ncc3c(NCc4ccncc4)ncnc32)cc1 (stereo not drawn)
solubility [1]: 12.3 µg/mL (≈ 30.8 µM)
inhibition [10]: Active
inhibition [12]: Active
inhibition [13]: Active
Activity [14]: inactive
inhibition [15]: Active
inhibition [16]: Active
IC50 [2]: 12.7 µM
IC50 [17]: > 100 µM
Ki [3]: 3.9 µM
IC50 [4]: 20.4 µM
IC50 [5]: 43.5 µM
Papp [6]: 5.4 ×10⁻⁶ cm/s
inhibition [20]: Active
Ki [7]: 0.66 µM
IC50 [8]: 14.6 µM
IC50 [21]: 10.1 µM
remaining at 1 h [9]: 90%

CC(Cn1ncc2c(Nc3cccc(Cl)c3)ncnc21)c1ccccc1 (stereo not drawn)
solubility [1]: < 0.04 µg/mL
Papp [6]: 13.5 ×10⁻⁶ cm/s
remaining at 1 h [9]: 75%

Fc1ccc(CNc2ncnc3c2cnn3CC(Cl)c2ccc(F)cc2)cc1 (stereo not drawn)
solubility [1]: < 0.04 µg/mL
Papp [6]: 11 ×10⁻⁶ cm/s
remaining at 1 h [9]: 82%

ClC(Cn1ncc2c(NCc3ccccc3)nc(SCCN3CCOCC3)nc21)c1ccccc1 (stereo not drawn)
solubility [1]: 1.2 µg/mL (≈ 2.36 µM)
inhibition [12]: Active
inhibition [13]: Active
inhibition [15]: Active
inhibition [16]: Active
IC50 [2]: 3.1 µM
Ki [3]: 2.9 µM
IC50 [4]: 5.1 µM
IC50 [5]: 19.7 µM
Papp [6]: 9.1 ×10⁻⁶ cm/s
Ki [7]: 0.09 µM
IC50 [8]: 23.7 µM
remaining at 1 h [9]: 95%

Clc1ccc(C(Cl)Cn2ncc3c(NCc4ccccn4)ncnc32)cc1 (stereo not drawn)
IC50 [2]: 30.6 µM
IC50 [8]: 16.6 µM
IC50 [21]: 31.4 µM

ClC(Cn1ncc2c(Nc3ccccc3)nc(SCCN3CCOCC3)nc21)c1ccccc1 (stereo not drawn)
inhibition [10]: Active
inhibition [12]: Active
inhibition [13]: Active
inhibition [15]: Active
inhibition [16]: Active
IC50 [2]: 2.2 µM
IC50 [4]: 4.7 µM
Papp [6]: 10 ×10⁻⁶ cm/s
inhibition [20]: Active

Fc1ccc(CNc2ncnc3c2cnn3CC(Cl)c2ccc(Cl)cc2)cc1 (stereo not drawn)
solubility [1]: < 0.04 µg/mL
inhibition [10]: Active
CC50 [24]: 0.7 µM
inhibition [12]: Active
inhibition [13]: Active
Activity [14]: inactive
inhibition [15]: Active
inhibition [16]: Active
CC50 [25]: 0.7 µM
IC50 [2]: 9.2 µM
IC50 [17]: 13.3 µM
IC50 [4]: 2.8 µM
Activity [19]: Active
IC50 [5]: 6.1 µM
CC50 [26]: 0.7 µM
inhibition [20]: Active
IC50 [8]: 6.2 µM
IC50 [21]: 8.1 µM
CC50 [27]: 0.7 µM
remaining at 1 h [9]: 94%
Activity [22]: Active
Activity [23]: Active

Fc1ccc(C(Cl)Cn2ncc3c(NCc4ccccn4)ncnc32)cc1 (stereo not drawn)
IC50 [2]: 37.5 µM
IC50 [8]: 23.8 µM
IC50 [21]: 40.6 µM

CS(=O)(=O)c1nc(NCc2ccccc2)c2cnn(CC(Cl)c3ccccc3)c2n1 (stereo not drawn)
IC50 [2]: 35.8 µM
IC50 [8]: 41.4 µM
IC50 [21]: 36.1 µM

Clc1cccc(Nc2nc(SCCN3CCOCC3)nc3c2cnn3CC(Cl)c2ccccc2)c1 (stereo not drawn)
solubility [1]: 0.1 µg/mL (≈ 0.189 µM)
inhibition [10]: Active
inhibition [12]: Active
inhibition [13]: Active
inhibition [15]: Active
inhibition [16]: Active
IC50 [2]: 4.5 µM
inhibition [20]: Active
IC50 [8]: 6.1 µM
remaining at 1 h [9]: 95%

ClC(Cn1ncc2c(NCCc3ccccc3)nc(SCCN3CCOCC3)nc21)c1ccccc1 (stereo not drawn)
Ki [28]: Not Active
